PMC4105567, “Aurora Kinases as Druggable Targets in Pediatric Leukemia: Heterogeneity in Target Modulation Activities and Cytotoxicity by Diverse Novel Therapeutic Agents” (PLoS ONE, 2014)
Like-named read-outs stand apart in the source and are kept apart here.

Tests used:
[1] = test system: normal cells versus leukemia cell lines; assay: Comparison of cytotoxicity IC50 values, normal cells versus leukemia cell lines; type: cell-based, human; conditions: normal lymphocytes and bone marrow stroma versus leukemia cell lines of Table 2
Method: (§1) For cytotoxicity profiling of Aurora kinase inhibitors against leukemia cell lines, inhibitors or vehicle control (DMSO, Sigma-Aldrich) were diluted in 100 µl of Opti-MEM per well in 96 well plates (Grenier Bio-One, Monroe, North Carolina) in triplicate at final concentrations ranging from 1×10^−6 to 10 µM. 1×10^4 cells per well were seeded and plates were incubated for 4 days. Following incubation for 4 days, cell survival was quantified by Alamar blue assay (Invitrogen) or automated inverted microscopy using the Celigo Cell Cytometer (Cyntellect, San Diego, California). […] During this period of incubation, the absorbance at 570–620 nm was measured (Opsys MR Plate Reader, Dynex Technologies, Chantilly, Virginia) at various time points, depending on the cell line or sample. Percent survival was calculated by comparing the absorbance ratio of the test well to the control well multiplied by 100%, as indicated in the following formula: […]
(§2) For automated inverted microscopy, the number of cells in each well was determined using the direct cell counting application as described previously. Briefly, following adjustment of image acquisition settings for bright-field imaging, the wells containing cells and appropriate dilutions of inhibitors were individually scanned. Based on these images, analysis parameters, including intensity threshold and cell diameter, were modified for optimal inclusion of viable cells in treated and control wells. These parameters were applied for subsequent replicates involving the same leukemia cell line or sample. The percent survival was then calculated as a ratio of the number of cells in treated wells to the number of cells in control wells multiplied by 100%. Given that Aurora kinase inhibitors interfere with cytokinesis, cells that are committed to death may still contain enlarging but intact cytoplasmic content before the eventual loss of cytoplasmic membrane integrity. The accuracy of Alamar blue assay may be, in theory, affected by the timing of these events.

TIB-202 AML cell line = assay: Cytotoxicity assay, TIB-202; type: cell-based, human; conditions: AML cell line TIB-202, four days in culture, Alamar blue assay or automated microscopy, ± SD, three experiments
Method: (§3) Cell lines were cultured in Opti-MEM medium (Gibco, Life Technologies Corporation, Burlington, Ontario) supplemented with 10% heat inactivated fetal bovine serum (FBS) (Gibco), 100 units/ml penicillin and 100 units/ml streptomycin (Gibco) and 0.05 mM 2-mercaptoethanol (Sigma-Aldrich, Oakville, Ontario) in T25 flasks (Nalge Nunc, Rochester, New York) or T75 flasks (Corning Incorporated, Corning, New York). All cell cultures were maintained at 37°C in a humidified incubator with 5% CO2.
as §1, §2

Normal Lymphocytes = assay: Cytotoxicity assay, normal lymphocytes; type: cell-based, human; conditions: normal lymphocytes (control for non-leukemia cytotoxicity), four days in culture, ± SD, three experiments
Method: (§4) These include B-ALL (Patient #1), relapsed AML (Patient #2), AML/CML (Patient #3), infant ALL (Patient #4), and initial ALL presenting with secondary AML (Patient #5). […] The diluted sample was then layered on a Ficoll-Paque (GE Healthcare, Piscataway, New Jersey) gradient at a 1∶2 ratio of Ficoll to diluted sample. Samples were then centrifuged 1800 rpm for 20 minutes at room temperature. The buffy coat was removed with a pipette and transferred to a new centrifuge tube and diluted with PBS. After an additional centrifugation at 1200 rpm, the white blood cell pellet was washed with PBS and centrifuged one last time. Cells were re-suspended in Opti-MEM and viable cells were counted using trypan blue (Invitrogen, Life Technologies Corporation, Burlington, Ontario) exclusion on a haemocytometer. An identical protocol was followed for the isolation of white blood cells, referred to as “normal lymphocytes” in the following paragraphs, from healthy volunteers. Samples grown in culture for up to six months were cultured in Opti-MEM medium supplemented with 10% heat inactivated FBS, penicillin/streptomycin and 2-mercaptoethanol.
as §1, §2

KOPN8 B-ALL cell line = assay: Cytotoxicity assay, KOPN8; type: cell-based, human; conditions: four days in culture, Alamar blue assay or automated microscopy, ± SD, three experiments
Method: as §3, §1, §2

Nalm6 B-ALL cell line = assay: Cytotoxicity assay, Nalm6; type: cell-based, human; conditions: four days in culture, Alamar blue assay or automated microscopy, ± SD, three experiments
Method: as §3, §1, §2

CEM T-ALL cell line = assay: Cytotoxicity assay, CEM; type: cell-based, human; conditions: four days in culture, Alamar blue assay or automated microscopy, ± SD, three experiments
Method: as §3, §1, §2

[2] = test system: Patient #3 AML/CML primary leukemia cells; assay: Cytotoxicity assay, primary sample Patient #3; type: cell-based, human; conditions: four days in culture, Alamar blue assay or automated microscopy, one complete study
Method: as §4, §1, §2

[3] = test system: Patient #2 relapsed AML primary leukemia cells; assay: Cytotoxicity assay, primary sample Patient #2; type: cell-based, human; conditions: four days in culture, Alamar blue assay or automated microscopy, one complete study
Method: as §4, §1, §2

[4] = test system: Patient #5 ALL/AML primary leukemia cells; assay: Cytotoxicity assay, primary sample Patient #5; type: cell-based, human; conditions: read-out: IC50, Patient #5 ALL/AML
Method: as §4, §1, §2

HL-60 APML cell line = assay: Cytotoxicity assay, HL-60; type: cell-based, human; conditions: APML cell line HL-60, four days in culture, Alamar blue assay or automated microscopy, ± SD, three experiments
Method: as §3, §1, §2

B1 B-ALL cell line = assay: Cytotoxicity assay, B1; type: cell-based, human; conditions: four days in culture, Alamar blue assay or automated microscopy, ± SD, three experiments
Method: as §3, §1, §2

NB4 APML cell line = assay: Cytotoxicity assay, NB4; type: cell-based, human; conditions: four days in culture, Alamar blue assay or automated microscopy, ± SD, three experiments
Method: as §3, §1, §2

Molt-3 T-ALL cell line = assay: Cytotoxicity assay, Molt-3; type: cell-based, human; conditions: T-ALL cell line Molt-3, four days in culture, Alamar blue assay or automated microscopy, ± SD, three experiments
Method: as §3, §1, §2

Bone Marrow Stroma = assay: Cytotoxicity assay, bone marrow stroma; type: cell-based, human; conditions: bone marrow stroma (control for non-leukemia cytotoxicity), four days in culture, ± SD, three experiments
Method: as §1, §2

SEM B-ALL cell line = assay: Cytotoxicity assay, SEM; type: cell-based; conditions: Homo sapiens, 96 h, four days in culture, Alamar blue assay or automated microscopy, ± SD, three experiments
Method: as §3, §1, §2

[5] = test system: Patient #1 B-ALL primary leukemia cells; assay: Cytotoxicity assay, primary sample Patient #1; type: cell-based, human; conditions: four days in culture, Alamar blue assay or automated microscopy, one complete study
Method: as §4, §1, §2

[6] = test system: Patient #4 infant leukemia primary cells; assay: Cytotoxicity assay, primary sample Patient #4; type: cell-based, human; conditions: four days in culture, Alamar blue assay or automated microscopy, one complete study
Method: as §4, §1, §2

Molm13 AML cell line = assay: Cytotoxicity assay, Molm13; type: cell-based, human; conditions: four days in culture, Alamar blue assay or automated microscopy, ± SD, three experiments
Method: as §3, §1, §2

UOCB1 B-ALL cell line = assay: Cytotoxicity assay, UOCB1; type: cell-based, human; conditions: four days in culture, Alamar blue assay or automated microscopy, ± SD, three experiments
Method: as §3, §1, §2

MV4-11 AML cell line = assay: Cytotoxicity assay, MV4-11; type: cell-based, human; conditions: AML cell line MV4-11, four days in culture, Alamar blue assay or automated microscopy, ± SD, three experiments
Method: as §3, §1, §2

HL-60 RA APML cell line = assay: Cytotoxicity assay, HL-60 RA; type: cell-based, human; conditions: APML cell line HL-60 RA, four days in culture, Alamar blue assay or automated microscopy, ± SD, three experiments
Method: as §3, §1, §2

C1 B-ALL cell line = assay: Cytotoxicity assay, C1; type: cell-based, human; conditions: four days in culture, Alamar blue assay or automated microscopy, ± SD, three experiments
Method: as §3, §1, §2

Aurora-C = conditions: read-out: Targets (IC50 Value): Aurora-C; literature values; ref [10],[40],[44]–[64] as listed per inhibitor in Table 1; cited from earlier work
[7] = Homo sapiens, 96 h, primary sample, four days in culture, Alamar blue assay or automated microscopy, one complete study

SMILES	IC50 values for the normal cells compared with IC50 values for the leukemia cell lines (potential therapeutic window) [1]	IC50 (TIB-202 AML cell line; Homo sapiens, 96 h) [nM]	IC50 (Normal Lymphocytes; Homo sapiens, Lymphocyte, 96 h) [nM]	IC50 (KOPN8 B-ALL cell line; Homo sapiens, KOPN-8, 96 h) [nM]	IC50 (Nalm6 B-ALL cell line; Homo sapiens, NALM-6, 96 h) [nM]	IC50 (CEM T-ALL cell line; Homo sapiens, 96 h) [nM]	IC50 ([2]; Homo sapiens, 96 h) [nM]	IC50 ([3]; Homo sapiens, 96 h) [nM]	IC50 (HL-60 APML cell line; Homo sapiens, 96 h) [nM]	IC50 (B1 B-ALL cell line; Homo sapiens, 96 h) [nM]	IC50 (NB4 APML cell line; Homo sapiens, 96 h) [nM]	IC50 (Molt-3 T-ALL cell line; Homo sapiens, 96 h) [nM]	IC50 (Bone Marrow Stroma; Homo sapiens, 96 h) [nM]	IC50 (SEM B-ALL cell line) [nM]	IC50 ([5]; Homo sapiens, 96 h) [nM]	IC50 ([6]; Homo sapiens, 96 h) [nM]	IC50 (Molm13 AML cell line; Homo sapiens, MOLM-13, 96 h) [nM]	IC50 (UOCB1 B-ALL cell line; Homo sapiens, UoC-B1, 96 h) [nM]	IC50 (MV4-11 AML cell line; Homo sapiens, 96 h) [nM]	IC50 (HL-60 RA APML cell line; Homo sapiens, 96 h) [nM]	other results
CO[C@@H](C(=O)N1Cc2n[nH]c(NC(=O)c3ccc(N4CCN(C)CC4)cc3)c2C1)c1ccccc1 [PHA-739358]	lower than the IC50 values for the normal cells, but not as pronounced	2000 ± 900	> 10000	2 ± 1	9 ± 0.9	10 ± 6	> 10000	300	900 ± 100	2000 ± 900	200 ± 100	4 ± 2	3000 ± 1000	80 ± 20	0.9	> 10000	6 ± 1	60 ± 20	3 ± 2	7 ± 1	IC50 [4, 7]: 1 nM; IC50 (C1 B-ALL cell line; Homo sapiens, 96 h): 8 ± 1 nM; IC50 (Aurora-C): 61 nM
Nc1nc(Nc2ccc(S(N)(=O)=O)cc2)nn1C(=O)c1c(F)cccc1F [JNJ-7706621]	lower than the IC50 values for the normal cells, but not as pronounced	3000 ± 1000	7000 ± 500	400 ± 80	1000 ± 100	300 ± 200	> 10000	700	5000 ± 2000	1000 ± 100	2000 ± 900	700 ± 100	7000 ± 800	700 ± 300	1000	8000	2000 ± 600	200 ± 90	800 ± 90	800 ± 100	IC50 ([4]; Homo sapiens, 96 h): 0.5 nM; IC50 (C1 B-ALL cell line; Homo sapiens, 96 h): 1000 ± 500 nM
COc1cc2c(Nc3ccc(NC(=O)c4ccccc4)cc3)ncnc2cc1OCCCN1CCOCC1 [ZM447439]	lower than the IC50 values for the normal cells, but not as pronounced	–	–	–	–	–	–	–	–	–	–	–	–	–	–	–	–	–	–	–	IC50 (TIB-202 AML cell line): 800 ± 100 nM; IC50 (Normal Lymphocytes): 6000 ± 800 nM; IC50 (KOPN8 B-ALL cell line): 100 ± 70 nM; IC50 (Nalm6 B-ALL cell line): 80 ± 4 nM; IC50 (CEM T-ALL cell line): 60 ± 30 nM; IC50 [2]: 10000 nM; IC50 [3]: > 10000 nM; IC50 ([4]; primary sample, four days in culture, Alamar blue assay or automated microscopy, one complete study): 9 nM; IC50 (HL-60 APML cell line): 1000 ± 100 nM; IC50 (B1 B-ALL cell line): 1000 ± 50 nM; IC50 (NB4 APML cell line): 4000 ± 2000 nM; IC50 (Molt-3 T-ALL cell line): 90 ± 10 nM; IC50 (Bone Marrow Stroma): 2000 ± 400 nM; IC50 [5]: 20 nM; IC50 [6]: 7000 nM; IC50 (Molm13 AML cell line): 500 ± 300 nM; IC50 (UOCB1 B-ALL cell line): 80 ± 20 nM; IC50 (MV4-11 AML cell line): 200 ± 100 nM; IC50 (HL-60 RA APML cell line): 500 ± 300 nM; IC50 (C1 B-ALL cell line): 80 ± 20 nM
O=C(Nc1cccc(Cl)c1)Nc1ncc(CCNc2ncnc3ccsc23)s1 [SNS-314]	–	< 0.001	4000 ± 2000	< 0.001	< 0.001	< 0.001	4000	0.5	0.02	< 0.001	6 ± 4	< 0.001	> 10000	< 0.001	< 0.001	8000	< 0.001	< 0.001	< 0.001	< 0.001	IC50 ([4]; Homo sapiens, 96 h): < 0.001 nM; IC50 (C1 B-ALL cell line; Homo sapiens, 96 h): < 0.001 nM; IC50 (Aurora-C): 3 nM
Cc1cc(Nc2cc(N3CCN(C)CC3)nc(/C=C/c3ccccc3)n2)n[nH]1 [ENMD-2076]	lower than the IC50 values for the normal cells, but not as pronounced	800 ± 200	5000 ± 3000	600 ± 300	200 ± 100	600 ± 50	4000	8	700 ± 90	1000 ± 300	1000 ± 600	800 ± 50	3000 ± 1000	500 ± 400	100	10000	40 ± 20	1000 ± 500	1 ± 0.1	700 ± 200	IC50 [4, 7]: 30 nM; IC50 (C1 B-ALL cell line; Homo sapiens, 96 h): 700 ± 200 nM
COc1cc(Nc2ncc3c(n2)-c2ccc(Cl)cc2C(c2c(F)cccc2OC)=NC3)ccc1C(=O)O [MLN8237]	higher than the IC50 values for the leukemia cell lines	0.4	5000 ± 2000	5 ± 2	6 ± 3	< 0.001	700	500	9 ± 0.9	4 ± 3	60 ± 8	< 0.001	> 10000	4 ± 1	6	3000	4 ± 2	0.003	4 ± 1	4 ± 2	IC50 [4, 7]: 0.1 nM; IC50 (C1 B-ALL cell line; Homo sapiens, 96 h): 3 ± 1 nM
